Key:
Assay type in all cases: cell-based, human
[1] = tested on: cyclin A; test: Immunoblot for cyclin A in M1619 cells; details: CuSO4 1.6 μM alone; 24 hours
Procedure: Cells were lysed and proteins were isolated and quantitated by immunoassay as previously detailed using 2 μg/ml of primary rabbit polyclonal antibodies against human bcl-2, p53, p21^WAF1/CiP1, cyclin A and cyclin B1, and peroxidase-labeled donkey polyclonal anti-rabbit IgG. Cells were placed on ice, washed twice with cold DPBS, scraped into 0.5 ml boiling buffer (10% [vol/vol] glycerol and 2% [wt/vol] sodium dodecyl sulfate [SDS] in 83 mM Tris, pH 6.8) and sheared by four passages through a pipette. Aliquots were removed for protein determination, using the BCA protein assay (Pierce). After 10% β-mercaptoethanol and 0.05% bromophenol blue were added, lysates were boiled for 5 min and stored at -80° C. until immunoblotting was performed. Proteins in defrosted samples were separated by SDS-polyacrylamide gel electrophoresis on 12% polyacrylamide gels (15 μg protein/lane) and electrotransferred to 0.45 μm Hybond ECL nitrocellulose membranes (Amersham Life Sciences) using the wet transblot method in transfer buffer (0.025 M Tris, 0.192 M glycine, 2.6 mM SDS, and 20%[vol/vol] methanol; pH 8.8) at 100 volts for 1 hour. Blots were blocked overnight at 4° C. with blocking buffer (PBS with 0.1% Tween 20) containing 5% fat-free milk powder (Carnation, Glendale, Calif.). After rinsing 5 times for 5 minutes each in PBS containing 0.1% Tween 20, blots were incubated for 1 hour at room temperature with 2.0 μg/ml of primary antibody. After rinsing again as above, blots were incubated for 1 hr at room temperature with horseradish peroxidase (HRP)-conjugated secondary antibody diluted 1:5,000 in blocking buffer. Immunoblots were rinsed again as above and detected via an enhanced chemiluminescence method (ECL Western blotting detection system, Amersham Life Science, Buckinghamshire, England). Autoradiographic film (X-OMAT AR, Eastman Kodak, Rochester, N.Y.) was exposed to immunoblots for 10, 30, or 60 seconds to obtain satisfactory images. Since disulfiram and copper disrupt transcription factor DNA binding to CRE, their effect on expression of cyclin A was studied. […]

[2] = tested on: M1619 cells; test: Intracellular reactive oxygen species, dichlorofluorescin probe; details: CuSO4 0.2-1.6 μM
Procedure: Potential redox effects of disulfiram were studied in three sets of experiments. The importance of cellular glutathione (GSH) in mediating or modulating thiocarbamate toxicity was studied by measuring levels of intracellular GSH after treatment with disulfiram. […] Also, to assess whether a nonspecific antioxidant effect of disulfiram or PDTC might account for cellular growth inhibition, we studied the effect of the potent lipophilic antioxidant probucol (1.0 to 1,000 μM) on proliferation of malignant cell lines. […] A. Royall, et al., “Evaluation of 2′,7′-dichlorofluorescin and dihydrorhodamine 123 as fluorescent probes for intracellular H2O2 in cultured endothelial cells,” Archiv. Biochem. Biophys. 302:348-355 (1993)). […] Cells were plated in 24 well plastic plates at 50,000 cells per well and grown to confluence. Media was aspirated from wells and replaced with 100 μl medium containing 10 μM DCF-DA, and plates were incubated at 37° C. for 30 minutes. The DCF-DA containing media was aspirated, cells were washed twice with media alone and 100 μl fresh media was added to wells. […] The relative concentration of dichlorofluroescein was measured immediately by monitoring fluorescence at 37° C. using an excitation wavelength of 485 nm and emission wavelength of 535 nm.

[3] = tested on: M1619 melanoma cells; test: MTT proliferation assay, M1619 melanoma; details: CuSO4 supplementation of medium without disulfiram
Procedure: Human malignant cell lines were obtained from American Type Tissue Culture Collection (Rockville, Md.). Melanoma cells lines CRL 1585 and 1619 were cultured in RPMI 1640 (GIBCO-BRL, Life Technologies, Grand Island, N.Y.) with 10% FBS and passed with nonenzymatic Cell Dissociation Solution® (Sigma). The prostate adenocarcinoma cell line CRL 1435 (PC-3) was also cultured in RPMI 1640 with 10% FBS but passed with 0.05% trypsin and 0.53 mM EDTA. The squamous lung carcinoma NCI-H520 and the adenosquamous lung carcinoma NCI-H596 cell lines were grown in RPMI 1640 supplemented with 10% FBS, 10 mM HEPES and 1.0 mM sodium pyruvate and passed with trypsin/EDTA. The small cell lung carcinoma NCI-H82 was cultured as a suspension in RPMI 1640 with 10% FBS. All of the above were grown in a 37° C. humidified environment containing 5% CO2/air. The breast carcinoma cell line MDA-MB-453 was grown in a 37° C. humidified environment with free gas exchange with atmospheric air using Leibovitz's L-15 medium with 2 mM L-glutamine and 10% FBS and was passed with trypsin/EDTA.
The effect of disulfiram (0.15 to 5.0 μM), diethyldithiocarbamate (DDC, 1.0 μM) or PDTC (0.625 to 5.0 μM) on proliferation of malignant cell lines was studied in cultures stimulated with 10% FBS. Cell numbers were quantitated 24-72 hours later. In some experiments disulfiram or PDTC were added immediately after cells were plated. In other experiments, cells were plated and allowed to grow for 24-72 hours before fresh media with disulfiram or PDTC was added, and cell numbers were assayed 24-72 hours later.
Finally, a number of dithiocarbamate effects on cells have been attributed to increasing the intracellular levels of copper ions. To further probe the role of copper in mediating cytotoxicity from disulfiram, cells were cultured with or without addition of the impermeate Cu^2+ chelator bathocuprioinedisulfonic acid (BCPS, 100 μM) added to medium to sequester Cu^2+ in the extracellular compartment. Cells were also treated 12 hours with various concentration of disulfiram (0.625 to 5.0 μM) and intracellular copper levels were measured as outlined below.
Proliferation of cultured cells was quantitated using a previously reported calorimetric method based upon metabolic reduction of the soluble yellow tetrazolium dye 3-[4,5-dimethylthiazol]-2yl-2,5-diphenyl tetrazolium bromide (MTT) to its insoluble purple formazan by the action of mitochondrial succinyl dehydrogenase (See, e.g., S. J. Hirst, et al., “Quantifying proliferation of cultured human and rabbit airway smooth muscle in response to serum and platelet derived growth factor,” Am. J. Respir. Cell Mol. Biol. 7:574-581 (1992); R. Dashtaki, et al. R., supra; S. S. Brar, et al., “Requirement for reactive oxygen species in serum-induced and platelet-derived growth factor-induced growth of airway smooth muscle,” J. Biol. Chem. 274:20017-20026 (1999)). This assay empirically distinguishes between dead and living cells. For proliferation studies, cells were seeded into 24-well uncoated plastic plates (Costar) at 50,000 cells per well and cultured with respective media and mitogens.

SMILES: O=S(=O)([O-])[O-].[Cu+2] [CuSO4, cupric sulfate]
- cyclin A expression [1]: little effect
- generation of reactive oxygen species (dichlorofluorescein fluorescence vs baseline) [2]: not increased
- cell growth, copper alone [3]: do not by themselves affect cell growth

Source: patent publication US6548540B2, “Method of treating cancer using dithiocarbamate derivatives” (Charlotte-Mecklenburg Hospital Authority, priority 1998, dated 2003)
